{"source": "patent US20210228500A1", "about": "“CELLULAR RETINOID BINDING PROTEIN ANTAGONISTS AND USES THEREOF” (CASE WESTERN RESRVE UNIVERSITY, priority 2018, published 2021)", "key": {"[1]": {"target": "T1, CRBP2 (Homo sapiens, UniProt P50120)", "T1 construct": "6x histidine tag (C, cleaved yes); thrombin cut site (residual residues after digestion) (C); made in house; host or cells: E. coli BL21 (DE3)", "T1 sequence (P50120 1-134)": "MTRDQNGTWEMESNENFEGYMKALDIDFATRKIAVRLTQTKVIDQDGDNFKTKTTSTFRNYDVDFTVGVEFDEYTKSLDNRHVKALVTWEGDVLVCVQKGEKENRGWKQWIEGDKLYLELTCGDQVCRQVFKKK", "experiment": "Fluorescence-binding assay with CRBP2"}, "[2]": {"target": "cannabinoid receptor 2 (Homo sapiens, UniProt P34972)", "sequence (P34972 whole entry)": "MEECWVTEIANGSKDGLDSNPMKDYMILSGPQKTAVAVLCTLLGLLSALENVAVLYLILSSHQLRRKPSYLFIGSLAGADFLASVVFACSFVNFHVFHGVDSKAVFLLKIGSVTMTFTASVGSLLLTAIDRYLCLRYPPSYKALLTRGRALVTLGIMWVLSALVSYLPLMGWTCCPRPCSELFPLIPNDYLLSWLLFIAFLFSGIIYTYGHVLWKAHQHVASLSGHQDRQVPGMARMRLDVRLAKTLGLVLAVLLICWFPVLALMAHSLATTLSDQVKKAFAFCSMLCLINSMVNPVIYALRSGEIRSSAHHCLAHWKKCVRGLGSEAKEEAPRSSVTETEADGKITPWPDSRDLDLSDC", "details": "cited from earlier work"}, "[3]": {"target": "T2, holo-CRBP1 (Homo sapiens, UniProt P09455)", "T2 construct": "made in house", "T2 sequence (P09455 1-135)": "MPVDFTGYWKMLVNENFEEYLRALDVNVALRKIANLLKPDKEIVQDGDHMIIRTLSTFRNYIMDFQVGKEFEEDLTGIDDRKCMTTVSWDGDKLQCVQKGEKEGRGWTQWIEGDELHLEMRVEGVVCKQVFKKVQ", "experiment": "High-throughput screening for CRBP1 ligands", "type": "binding", "details": "986 compounds at 5 μM, 1 μM holo-CRBP1", "description": "The principle of the fluorescence binding assays described above was adapted for the HTS in a 96-well plate format. Each well contained 0.2 mL of 20 mM Tris/HCl, pH 7.4 and 1 μM of holo-CRBP1. Tested compounds from two independent libraries (Bioactive Lipid I Screening Library form Cayman Chemicals and Screen-Well Bioactive Lipid Library from Enzo Life Science, total of 986 chemicals) were delivered in dimethyl sulfoxide (DMSO) to the final concentration of 5 μM. After 15 min of incubation at room temperature (RT), the samples were excited at 285 nm, and the fluorescence signals from CRBP1 (at 350 nm) and atROL (at 480 nm) were recorded in a Flexstation3 microplate reader (Molecular Devices). Changes in the fluorescence emissions were evaluated by calculating ratio between signals at 480 and 350 nm. To eliminate false positives, only those wells in which the increase in protein fluorescence was accompanied by proportional decline in the fluorescence of atROL were considered as potential hits.\nTo search for compounds interacting with CRBP1, we developed an HTS strategy that minimalized experimental bias associated with investigating the binding of hydrophobic ligands to a protein specialized for interaction with small lipophilic molecules. It is based on the fluorescence properties of CRBP1 in complex with its natural ligand, atROL. […]"}, "[4]": {"test_system": "Balb/cJ mice", "experiment": "Electroretinography (ERG) after photobleach", "type": "in vivo", "details": "30 mg kg^−1; scotopic ERG 4 h after flash of light", "description": "Before the ERG recording, dark-adapted Balb/cJ mice were anesthetized with 20 mg mL^−1 ketamine and 1.75 mg mL^−1 xylazine in PBS at a dose of 0.1-0.13 mL per 25 g of body weight, and pupils were dilated with 1% tropicamide. Contact lens electrodes were placed on the eyes, and a reference electrode was positioned between two ears, while ground electrode was placed on the tail. Scotopic ERGs were recorded for both eyes of each mouse using a UTAS E-3000 universal testing and ERG system (LKC Technologies).\nTo quantify the effect of the CRBP1 inhibitor on the recovery of visual sensitivity after a light stimulus, we measured full-field electroretinography (ERG) responses in mice. Prior to the illumination, the animals were either treated with DMSO (vehicle) or abn-CBD. Both drugs were administrated in a dose of 30 mg kg^−1. Scotopic ERG responses at varying light intensities were recorded 4 h after the exposure to a flash of light that photobleached ˜50% of the visual pigment. […] However, even in a relatively high dose used in this experiment, the inhibitor of CRBP1 had much smaller impact on the visual cycle without causing its blockage, as it was reported for retinylamine and emixustat."}, "[5]": {"target": "T3, LRAT (Bos taurus, UniProt Q9BGL2)", "T3 construct": "from tissue; host or cells: bovine RPE microsomes", "T3 sequence (Q9BGL2 1-230)": "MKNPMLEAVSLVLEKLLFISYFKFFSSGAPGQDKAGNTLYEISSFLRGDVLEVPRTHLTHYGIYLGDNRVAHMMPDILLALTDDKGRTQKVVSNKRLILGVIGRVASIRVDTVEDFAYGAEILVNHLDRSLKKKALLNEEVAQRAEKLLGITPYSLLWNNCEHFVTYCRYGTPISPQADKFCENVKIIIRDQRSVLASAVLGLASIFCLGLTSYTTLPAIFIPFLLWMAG", "experiment": "Retinol esterification assay", "type": "biochemical", "details": "bovine RPE microsomes preincubated with 10-50 μM", "description": "The enzymatic activity of LRAT was assayed using isolated UV-treated bovine RPE microsomes as described previously. The reaction mixture included 20 mM Tris/HCl buffer, pH 7.4, 1 mM DTT, 1% bovine serum albumin (BSA; w/v), and RPE microsomes (˜100 μg of total protein) in the total volume of 0.1 mL. To test the influence of abn-CBD on the LRAT activity, 10, 20, or 50 μM of this compound was added prior to the addition of atROL (final concentration of 10 μM). To record the initial rate of the esterification, the mixture was incubated at RT for 5 min. The reaction was quenched with 0.2 mL of methanol, and the retinoids were extracted with 0.3 mL of hexane. The extracted retinoids were separated on a normal phase column (Agilent Zorbax Sil 5 μm 4.6×250 mm) in an isocratic flow of 10% ethyl acetate in hexane (flow rate of 1.5 mL min^−1). Elution of retinoids was monitored at 325 nm. All-trans-retinyl esters were quantified based on a correlation between the amount of injected synthetic standards and the area under chromatographic peaks.\nThus, to further probe the biological effect of this compound, we tested its effect on the key enzymes of the visual cycle. […]"}}, "note": "“Also recorded” adds a separate entry of the source.", "data": [{"smiles": "C=C(C)[C@@H]1CCC(C)=C[C@H]1c1c(O)cc(O)cc1CCCCC", "note": "[abn-CBD, 4-[(1R,6R)-3-Methyl-6-prop-1-en-2-ylcyclohex-2-en-1-yl]-5-pentylbenzene-1,3-diol]", "values": [{"measurement": "interaction with CRBP2", "setting": "[1]", "result": "does not interact; also recorded: absence of interaction"}, {"measurement": "interaction with cannabinoid receptor 2", "setting": "[2]", "result": "does not interact"}, {"measurement": "HTS result", "setting": "[3]", "result": "unique hit; also recorded: single hit"}, {"measurement": "recovery of a-wave and b-wave amplitudes (dark adaptation)", "setting": "[4]", "result": "slower; also recorded: slight delay in the dark adaptation"}, {"measurement": "effect on enzymatic activity of LRAT", "setting": "[5]", "result": "did not cause a measurable decline"}]}]}
